Measured values from ChEMBL document CHEMBL1128082, “Inhibition of an HIV-1 Tat-derived peptide binding to TAR RNA by aminoglycoside antibiotics” (Bioorg Med Chem Lett, 1995).

Target: Nucleic Acid
Experiment: Concentration required for the inhibition of HIV- 1 Tat-derived peptide binding to TAR RNA.
Assay type: nucleic-acid assay

For `NC[C@@H]1O[C@H](O[C@H]2[C@@H](O)[C@H](O[C@@H]3[C@@H](O)[C@H](N)C[C@H](N)[C@H]3O[C@H]3O[C@H](CN)[C@@H](O)[C@H](O)[C@H]3N)O[C@@H]2CO)[C@H](N)[C@@H](O)[C@@H]1O` [FRAMYCETIN], the IC50 was 0.92 µM.
For `CN[C@@H]1[C@H](O[C@H]2[C@H](O[C@H]3[C@H](O)[C@@H](O)[C@H](N=C(N)N)[C@@H](O)[C@@H]3N=C(N)N)O[C@@H](C)[C@]2(O)C=O)O[C@@H](CO)[C@H](O)[C@H]1O` [STREPTOMYCIN], the IC50 was 9.5 µM.
GENTAMICIN showed an IC50 of 45 µM.
